The values that follow come from patent US20250074939A1, “SEA URCHIN-DERIVED PEPTIDE AND USE THEREOF” (NATIONAL MARINE BIODIVERSITY INSTITUTE OF KOREA, priority 2021, published 2025).

Experiment [1] has as its target T1, recombinant human vasopressin V1A receptor (Homo sapiens, UniProt P37288). In words: cell-based.
Experiment [2] addresses T2, recombinant human oxytocin receptor (Homo sapiens, UniProt P30559). In words: cell-based.
The target in experiment [3] is T3, recombinant human vasopressin V1B receptor (Homo sapiens, UniProt P47901).
Experiment [4] addresses T3, recombinant human vasopressin V1B receptor. In words: cell-based.
Experiment [5] has as its system tube foot and esophageal tissues isolated from Echinus esculentus. To be noted: cited from earlier work.
Experiment [6] concerns the target T4, recombinant human vasopressin V2 receptor (Homo sapiens, UniProt P30518). Kind of experiment: cell-based.
Experiment [7] deals with T2, recombinant human oxytocin receptor. In words: cell-based or functional assay.
In experiment [8] the target is T4, recombinant human vasopressin V2 receptor. Kind of experiment: cell-based or functional assay.
For experiment [9], the target named is T5, recombinant human vasopressin V1B receptor (human) (UniProt P47901).
T5 sequence (looked up): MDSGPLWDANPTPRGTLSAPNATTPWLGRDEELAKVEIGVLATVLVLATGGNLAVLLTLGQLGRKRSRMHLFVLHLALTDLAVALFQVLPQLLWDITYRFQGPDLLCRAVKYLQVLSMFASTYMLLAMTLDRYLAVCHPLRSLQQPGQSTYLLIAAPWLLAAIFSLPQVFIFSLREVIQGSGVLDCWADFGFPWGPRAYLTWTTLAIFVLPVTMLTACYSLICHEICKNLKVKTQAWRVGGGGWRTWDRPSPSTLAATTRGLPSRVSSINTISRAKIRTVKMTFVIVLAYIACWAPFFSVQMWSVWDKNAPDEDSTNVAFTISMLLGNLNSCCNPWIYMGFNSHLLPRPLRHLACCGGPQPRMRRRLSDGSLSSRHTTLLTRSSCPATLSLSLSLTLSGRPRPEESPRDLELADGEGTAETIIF
Kind of experiment: cell-based or functional assay.

The target in experiment [10] is T1, recombinant human vasopressin V1A receptor. In words: cell-based or functional assay.

Where a SMILES comes first, the peptide text is derived from it. Bridges are numbered along the chain shown (N, C = ends).

T2 sequence (P30559 whole entry): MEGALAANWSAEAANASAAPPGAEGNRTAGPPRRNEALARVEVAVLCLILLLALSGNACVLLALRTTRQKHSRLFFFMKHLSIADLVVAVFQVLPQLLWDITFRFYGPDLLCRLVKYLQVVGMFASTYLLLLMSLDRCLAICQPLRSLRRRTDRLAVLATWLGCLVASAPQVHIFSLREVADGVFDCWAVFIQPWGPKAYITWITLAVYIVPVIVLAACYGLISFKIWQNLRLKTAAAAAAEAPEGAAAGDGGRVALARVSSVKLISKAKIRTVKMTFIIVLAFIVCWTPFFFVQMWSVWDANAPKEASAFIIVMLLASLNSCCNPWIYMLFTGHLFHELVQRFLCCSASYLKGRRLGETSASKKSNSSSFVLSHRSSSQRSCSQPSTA
T1 sequence (P37288 whole entry): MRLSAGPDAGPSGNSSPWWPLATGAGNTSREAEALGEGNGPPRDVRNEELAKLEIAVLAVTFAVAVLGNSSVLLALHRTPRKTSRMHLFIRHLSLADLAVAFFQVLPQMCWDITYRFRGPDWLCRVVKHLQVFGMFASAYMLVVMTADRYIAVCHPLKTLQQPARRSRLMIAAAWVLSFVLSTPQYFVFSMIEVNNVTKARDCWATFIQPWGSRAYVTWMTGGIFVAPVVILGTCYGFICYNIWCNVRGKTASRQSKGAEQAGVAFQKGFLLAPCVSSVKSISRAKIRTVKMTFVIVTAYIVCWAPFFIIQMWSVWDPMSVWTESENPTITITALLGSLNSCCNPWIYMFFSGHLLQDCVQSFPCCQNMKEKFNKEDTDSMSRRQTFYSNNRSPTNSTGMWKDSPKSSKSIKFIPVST

For `CC[C@H](C)[C@@H]1NC(=O)[C@H](Cc2ccccc2)NC(=O)[C@@H](N)CSSC[C@@H](C(=O)N2CCC[C@H]2C(=O)N[C@@H](CCCCN)C(=O)NCC(N)=O)NC(=O)[C@H](CC(N)=O)NC(=O)[C@H](CO)NC1=O` [Echinotocin] (H-CFISNCPKG-NH2; disulfide 1-6; N-terminus assumed), the half-maximal inhibitory concentration (IC50) in experiment [1] stood at 1000 nM; in [2], 1700 nM. Also, the “receptor selectivity at appropriate concentration” value in experiment [3] is “selectively activates only the V1B receptor and has little effect on other receptors”. The results for the 50% effective concentration (EC50) in experiment [4] and in experiment [6] were 49.1 nM and 3.68 nM, respectively. Also, the “contraction of isolated tube foot and esophageal tissues” value in experiment [5] is “effective in contracting tube foot and esophageal tissues”.
For the compound “Echinotocin (Strongylocentrotus purpuratus-derived peptide, SEQ ID NO: 1)”, the receptor inhibition: intracellular calcium response to 30 nM oxytocin (calcium dye fluorescence imaging) in experiment [7] was 1.7 UM. For the same compound, the receptor activation: intracellular cAMP accumulation (HTRF), relative to 1 nM vasopressin in experiment [8] came to 3.68 nM. For the same compound, the receptor activation: increase of intracellular calcium concentration (calcium dye fluorescence imaging), relative to 0.1 µM vasopressin in [9] was determined as 49.1 nM. The receptor inhibition: intracellular calcium response to 10 nM vasopressin (calcium dye fluorescence imaging) in [10] is 1 µM.
